# Laboratory results from patent publication US20240174762A1, “METHODS, COMPOSITIONS AND USES FOR TARGETING SEMA7A IN THE DIAGNOSIS AND TREATMENT OF HEALTH CONDITIONS” (THE REGENTS OF THE UNIVERSITY OF COLORADO, A BODY CORPORATE, priority 2021, published 2024).
# Test system: human MCF7 model of ER+ breast cancer
# Test: ER+ SEMA7A expressing tumors, human MCF7 model
# Type: in vivo, mice
# Settings: FIG. 11
# From the text: FIGS. 11A-11H represents various graphs and images of tumor analysis and treatment according to various aspects of the disclosure. (A) represents analysis for relapse free survival of breast cancer patients treated with endocrine therapy assessed for SEMA7A levels; (B) MCF7 tumor cell growth in mice treated with endocrine therapy (e.g., Fulvestrant); (C) Lung metastasis of MCF7 in mice from 11B; (D) is a representative image illustrating BCL2 expression in SEMA7A OE cells; (E) MCF7 tumor growth in mice treated with endocrine therapy and a Bcl-2 inhibitor (e.g., Venetoclax) indicated by the arrows; (F) Lung metastasis in mice from […] above; (G) illustrates clonogenic growth of MCF7 EV or SEMA7A OE cells treated with 5 μM SU6656; clonogenic data are normalized to vehicle controls; and (H) represents clonogenic growth of MCF7 EV or SEMA7A OE cells treated with a composition according to various aspects of the disclosure.
# In another exemplary method, ER+SEMA7A expressing tumors are resistant to anti-estrogen-based therapy (Fulvestrant), anti-CDK4/6 therapy (Palbociclib), and chemotherapy but are sensitive to inhibition of cell survival pathways. […]
smiles,measurement,value
C[C@]12CC[C@@H]3c4ccc(O)cc4C[C@@H](CCCCCCCCC[S+]([O-])CCCC(F)(F)C(F)(F)F)[C@H]3[C@@H]1CC[C@@H]2O (stereo partly shown) [Fulvestrant],response of ER+SEMA7A expressing tumors to therapy,resistant
